Measured values reported in patent publication US6953814B2, “Natural insect repellant” (Stratacor, Inc., priority 1997, dated 2005).
Several values for one entry are separate records, joined by “and”; a condition that tells them apart may be missing. Equal entries are not always repeated.

Key:
[1] = at 125° C., literature values; cited from earlier work
mosquitoes [2] = settings: Hill et al. 1979; cited from earlier work
Aedes aegypti mosquitoes [3] = assay: Mosquito repellency on gauze or polyester film (olfactometer); format: in vivo; settings: cotton gauze or polyester film, 0.3 mg/cm^2, 3 minutes after application
Source text: Olfactometer: A Fiensod and […] olfactometer, as modified by Bowen and Davis, measured the host-oriented flight response of female mosquitoes to volatile host emanations (Feinsod, F. M., and […]; An olfactometer for measuring host-seeking behavior of female Aedes aegypti (Diptera: Culicidae); J. Med. Entomol., 15: 282-285, 1979). The olfactometer (approximately 38 cm high) consisted of an upper and lower screened chamber with a closure between the chambers (FIG. 8). A fan placed above the upper chamber drew air through the apparatus at approximately 0.2 m/s. A temperature and humidity controlled chamber (5' wide by 6' long by 8' high) was constructed to house the test subject and the olfactometer. Rearing of Mosquitoes: A second environmental chamber, maintained at 27° C. and 80% humidity, was dedicated to the rearing of Aedes aegypti mosquitoes. […] Assays for Attraction of Mosquitoes to Human Subjects: A group of 30 volunteers, consisting of 14 females and 16 males and ranging in age from 24 to 68 years, was selected from the surrounding civilian population. Individuals were tested for their ability to attract Aedes aegypti mosquitoes contained in the olfactometer. Tests were conducted at a temperature of 27° C. and 50% relative humidity. […] A small fan was placed on top of the upper chamber to cause an air flow from the lower chamber to the upper chamber. A trial began when the closure between the upper and lower chamber was opened in the absence of a human host. […] This trial was repeated twice during a test session to obtain three replicates. Two additional test sessions, at time intervals of at least 1 week, were conducted to obtain at least 8-9 replicates for each of 24 subjects. Of the remaining 6 subjects, 3 were tested on two separate occasions for a total of 6 replicates per subject; 3 were tested on one occasion for a total of 3 replicates per subject. A total of 254 tests were conducted. Test compounds were dissolved in acetone or ethanol at a concentration of 150 mg/5 cc. Ethanol solutions of carboxylic acids were prepared just prior to use. Five hundred microliters of these solutions were applied to a 50 cm^2 circular area of a single layer of cotton gauze (Curity Curad gauze, Futuro Inc., Milford, Ohio) or nonwoven polyester film ([…], Inc.). The resultant dose was 0.3 mg/cm^2. […] The cup was attached to the bottom of the olfactometer (FIG. 8) so that air flowed through the stainless steel screen of the cup, through the treated gauze or film, and through the olfactometer. A volunteer's forearm was placed under the cup, so that air drawn into the cup and olfactometer was laden with human skin emanations. Tests were conducted as described in the preceding paragraph, “Assays for attraction of mosquitoes to human subjects”. Percent repellency was determined from the fraction of mosquitoes entering the lower chamber over a seven minute period. This assay is an approximate measure of the intrinsic repellency of a compound. Good repellency in this test is a necessary, but not sufficient, condition for good repellency on skin. Mosquito repellents must produce a vapor over the skin surface to confuse the host seeking behavior of the insect. However, volatilization must not be so great that the repellent action rapidly dissipates. Since volatilization from the skin will be different from an inanimate surface, skin tests are necessary to confirm that a compound will be a practical repellent.

mosquitoes [4] = settings: under laboratory conditions; cited from earlier work
[5] = system: yellow fever mosquito (Aedes aegypti (L.)); settings: human skin, approximately 2 mg/cm^2, time until two bites; DEET from Gilbert 1957; cited from earlier work
Aedes aegypti = settings: 0.5 mg/cm^2 on the skin of man; cited from earlier work
Aedes aegypti mosquitoes [6] = settings: 0.31 mg/cm^2; cited from earlier work
Aedes aegypti mosquitoes [7] = assay: Mosquito repellency on skin (olfactometer, human forearm); format: in vivo; settings: for Percent Repellency 0 h: 0.3 mg/cm^2, 0 h after application; for Percent Repellency 2 h: 0.3 mg/cm^2, 2 h after application
Source text: Olfactometer: A Fiensod and Spielman olfactometer, as modified by Bowen and Davis, measured the host-oriented flight response of female mosquitoes to volatile host emanations (Feinsod, F. M., and A. Spielman; An olfactometer for measuring host-seeking behavior of female Aedes aegypti (Diptera: Culicidae); J. Med. Entomol., 15: 282-285, 1979). The olfactometer (approximately 38 cm high) consisted of an upper and lower screened chamber with a closure between the chambers (FIG. 8). A fan placed above the upper chamber drew air through the apparatus at approximately 0.2 m/s. A temperature and humidity controlled chamber (5′ wide by 6′ long by 8′ high) was constructed to house the test subject and the olfactometer.
Rearing of Mosquitoes: A second environmental chamber, maintained at 27° C. and 80% humidity, was dedicated to the rearing of Aedes aegypti mosquitoes. Routine shipments of eggs (American Biological Supply, Gainesville, Fla.) were used to maintain a continuous supply of adult 5-10 day old mosquitoes.
Assays for Attraction of Mosquitoes to Human Subjects: A group of 30 volunteers, consisting of 14 females and 16 males and ranging in age from 24 to 68 years, was selected from the surrounding civilian population. Individuals were tested for their ability to attract Aedes aegypti mosquitoes contained in the olfactometer. Tests were conducted at a temperature of 27° C. and 50% relative humidity. For each trial 15 avid adult female Aedes aegypti mosquitoes (5-10 days post-emergence) were placed in the upper chamber. A small fan was placed on top of the upper chamber to cause an air flow from the lower chamber to the upper chamber. A trial began when the closure between the upper and lower chamber was opened in the absence of a human host. The number of mosquitoes entering the lower chamber within a 3 minute period was recorded. The volunteer then placed his or her arm beneath the lower chamber and the number of mosquitoes flying from the upper chamber to the lower chamber was recorded for the time intervals 0-1, 1-3, 3-5 and 5-7 minutes. This trial was repeated twice during a test session to obtain three replicates. Two additional test sessions, at time intervals of at least 1 week, were conducted to obtain at least 8-9 replicates for each of 24 subjects. Of the remaining 6 subjects, 3 were tested on two separate occasions for a total of 6 replicates per subject; 3 were tested on one occasion for a total of 3 replicates per subject. A total of 254 tests were conducted.
Test compounds were dissolved in acetone or ethanol at a concentration of 300 mg/5 cc. Ethanol solutions of carboxylic acids were prepared just prior to use. Three hundred and fifty microliters of these solutions were applied to a 70 cm^2 rectangular area of the forearm. The resultant dose was 0.3 mg/cm^2. The repellent treated area was allowed to dry for 5 minutes prior to test. The treated skin area was placed under the olfactometer and tests were conducted as described in the preceding paragraph, “Assays for attraction of mosquitoes to human subjects”. Percent repellency was determined from the fraction of mosquitoes entering the lower chamber over a seven minute period.
A commercial formulation of DEET (Skintastic, S. C. Johnson, Racine,) was applied to a 100 cm^2 area on the forearm of 1 volunteer (subject 02) to give a dose of 0.3 mg/cm^2 of DEET. A formulation of C8C9C10 (5% octanoic, 5% nonanoic, 5% decanoic in Dow Corning 345 volatile silicone fluid) was applied to a 100 cm^2 on the subject's other arm to give a dose of 0.3 mg/cm^2 total acids. Application sites were placed under the olfactometer at 1, 2 and 4 hours after treatment. Untreated areas on each arm were placed under the olfactometer at the completion of the treated area tests to check the avidity of the mosquitoes. Tests were done on four separate test days. […]

Thermal stability = format: physicochemical
Vapor pressure = format: physicochemical; settings: at 125° C., estimated or extrapolated from literature values
Aedes aegypti mosquitoes [8] = assay: Mosquito repellency on skin (olfactometer, human forearm); format: in vivo
Ionization at skin pH = format: physicochemical; settings: pH = pKa of the acids
Source text: Naturally occurring fatty acids contain both polar (carboxylic acid group) and non-polar (alkyl chain) regions in their structure and the lower molecular weight homologs are sufficiently volatile to evaporate from the skin surface. Individually, these compounds have repellent activity. A number of these compounds were applied to non-absorptive gauze mounted between the human forearm and the olfactometer containing mosquitoes. These tests were done immediately after application to minimize losses due to evaporation (described fully in “Example 2” below). Because skin absorption and evaporative loss is minimized, this test can be regarded as a measure of the potency of the compounds. Homologs containing 8 to 11 carbon atoms had similar potency (percent repellency), which was greater than that of DEET (FIG. 3). Six carbon homologs and twelve carbon homologs had potency equal to or less than DEET. […] Percent repellency dropped dramatically with increasing numbers of carbon atoms in the molecule (FIG. 4). […] The nonanoic acid was preferably saturated. 4MOCTAN had the best overall performance at the zero and two hour time points. It should be noted for FIGS. 4 and 5 that the carboxylic acids exist on the skin at a pH which ionizes 50% of the molecules (pH=pKa of the acids). Since the ionized species are not volatile, the actual available dose is approximately 50% of that for DEET.

[9] = on skin, listed as N,N-Diethyl-m-toluamide

CCCCCC(=O)O [Hexanoic acid]
Vol. (vapor pressure) [1]: 39.6 mm Hg

CCN(CC)C(=O)c1cccc(C)c1 [DEET, N,N,-diethyl-m-toluamide, reference compound]
protects against mosquitoes for (mosquitoes [2]): 5 to 6 h | Percent Repellency (Aedes aegypti mosquitoes [3]): 74% | Percent Repellency (Aedes aegypti mosquitoes [3]; listed as N,N-Diethyl-m-toluamide): 74 ± 12% | hours of protection (mosquitoes [4]): 5 to 7 h | Protection time against yellow fever mosquitoes [5]: 363 min^b | Protection Time (Aedes aegypti): 8 ± 2 h | Protection time against Aedes aegypti mosquitoes (Aedes aegypti mosquitoes [6]): 5.5 h | Percent Repellency 0 h (Aedes aegypti mosquitoes [7]; on skin): 95% and 95 ± 6% | Percent Repellency 0 h (Aedes aegypti mosquitoes [7]; [9]): 95 ± 6 (3) % | Percent Repellency 2 h (Aedes aegypti mosquitoes [7]; on skin): 89% and 89 ± 10% | Percent Repellency 2 h (Aedes aegypti mosquitoes [7]; [9]): 89 ± 10 (3) % | Percent Repellency 4 h (Aedes aegypti mosquitoes [7]; on skin, 0.3 mg/cm^2, 4 h after application): 83 ± 9%

CCCCC(C)CCC(=O)O (centres unmarked) [4-Methyloctanoic acid]
pest or weed control at 0.3 mg/cm2 (Aedes aegypti mosquitoes [3]; Aedes aegypti, 0.05 h, read-out: Percent Repellency): 88 ± 18% | Thermal stability (Thermal stability): thermally unstable | Vol. (vapor pressure), (est) (Vapor pressure): 6 (est) mm Hg | repellency over a 4 hour period compared to DEET (Aedes aegypti mosquitoes [8]; 0.6 mg/cm^2 versus 0.3 mg/cm^2 DEET, FIG. 6): nearly equal to that of DEET | Percent Repellency 2 h (Aedes aegypti mosquitoes [8]; on skin, 0.6 mg/cm^2, 2 h after application): 79 ± 21 (2) % | Percent Repellency 4 h (Aedes aegypti mosquitoes [8]; on skin, 0.6 mg/cm^2, 4 h after application): 67 ± 9% | repellency immediately after application to skin, compared to DEET (Aedes aegypti mosquitoes [7]; FIG. 4): comparable to DEET | repellency two hours after skin application, ranking (Aedes aegypti mosquitoes [7]; FIG. 5): highest repellency | Percent Repellency 2 h (Aedes aegypti mosquitoes [7]; on skin): 66 (1) % | fraction ionized at skin pH (Ionization at skin pH): about 50%
